How the values were obtained:
[1] = test system: RIPK1 (Receptor-interacting serine/threonine-protein kinase 1); assay: TEAR1 target engagement immunoassay in monkey whole blood and tissues after IV dosing; parameters: species or system Macaca fascicularis
[2] = target: T1, RIPK1 (Receptor-interacting serine/threonine-protein kinase 1) (Homo sapiens, UniProt Q13546); assay: TEAR1 target engagement immunoassay (FREE-RIPK1/TOTAL-RIPK1) in HT29 cells; format: cell-based
T1 sequence (Q13546 1-671): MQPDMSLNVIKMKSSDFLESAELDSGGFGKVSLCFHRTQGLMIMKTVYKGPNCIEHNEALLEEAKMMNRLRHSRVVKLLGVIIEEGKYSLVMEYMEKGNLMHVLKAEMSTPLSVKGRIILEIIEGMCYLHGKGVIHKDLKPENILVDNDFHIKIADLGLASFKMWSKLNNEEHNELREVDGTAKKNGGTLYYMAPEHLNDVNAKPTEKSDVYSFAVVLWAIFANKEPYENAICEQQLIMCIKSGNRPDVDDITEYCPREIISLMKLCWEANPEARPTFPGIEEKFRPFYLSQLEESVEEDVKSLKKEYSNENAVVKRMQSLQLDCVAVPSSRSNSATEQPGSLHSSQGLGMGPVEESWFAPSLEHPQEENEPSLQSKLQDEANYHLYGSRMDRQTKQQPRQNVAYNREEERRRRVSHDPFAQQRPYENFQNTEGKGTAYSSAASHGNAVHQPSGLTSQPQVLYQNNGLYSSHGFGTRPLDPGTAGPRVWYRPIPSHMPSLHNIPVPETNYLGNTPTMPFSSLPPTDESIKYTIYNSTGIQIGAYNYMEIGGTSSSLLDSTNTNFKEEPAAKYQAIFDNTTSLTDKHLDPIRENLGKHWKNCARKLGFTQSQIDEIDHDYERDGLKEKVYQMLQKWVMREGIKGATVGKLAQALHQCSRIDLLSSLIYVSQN

IC50 [1]: 3.1 ng/mL
IC50 [2]: 0.5 nM
Substance: GSK3011253 [GSK'253]

Source: paper PMC5723705, “Identification of an antibody‐based immunoassay for measuring direct target binding of RIPK1 inhibitors in cells and tissues” (Pharmacology Research & Perspectives, 2017)
